Experimental findings from patent US20070232575A1, “Treatment of Pulmonary Artery Hypertension with Dhea, Dheas, Dhea Analogs, or Dhea Derivatives” (priority 2004, published 2007) are described below.

Holding throughout (type): in vivo, rat
One assay has as its system BKCa. The assay is described as follows: Immunoblot of BKCa in arterial pulmonary extracts. The settings on record: oral DHEA 3 weeks. As for the experimental part:
The level of expression of BKCa was examined using an immunoblot. Arterial pulmonary extracts were prepared from a pool of eight rats per sample and condition. Three separate samples were taken for each condition. The samples were ground in liquid N2, homogenized in RIPA buffer (1% Nonidet P-40/0.5% deoxycholate sodium/0.1% SDS/10 μg/ml aprotinin/100 μg/ml leupeptin/1 mM 4-(2-aminoethyl)benzenesulfonylfluoride in PBS) with a polytron (Bioblock Scientific), and then centrifuged. The extract was verified by Coomassie blue staining. Each sample was loaded at 10 μg in 7.5% resolving acrylamide gel and electrotransferred on to a nylon membrane. Immunoblot analyses used rabbit mAb against rat BKCa (Alomone Labs, Jerusalem, no. APC-021 at 1/500) and mouse monoclonal anti-actin (Santa Cruz Biotechnology, clone C-2 at 1/500). […] All experiments were repeated two or three times. Quantification of the data was performed using the SCION IMAGE program from the National Institutes of Health.
On the technique in general: In western blotting, separated proteins are transferred to a membrane and probed.

The subject of assay [1] is chronic hypoxic-pulmonary artery hypertension (CH-PAH). The assay is described as follows: Echocardiography: right ventricular (RV) wall thickness in CH rats. The protocol: The rat model experiments were performed as follows. Adult male Wistar rats (220-240 g) were randomized into five groups. […] Intravascular administration was performed via the catheter inserted in the right jugular vein.
To perform this procedure, the rats were first anaesthetized.

The test system of a further assay is IPA wall. The assay is described as follows: CH-induced intrapulmonary artery (IPA) wall remodeling, media layer thickness. As for the experimental part:
Lung sections were formalin-fixed in preparation for histology studies. PA external diameter (PAED), PA internal diameter (PAID), and percentage vessel wall thickness (PAED−PAID)/PAED×100) were measured in small- and medium-sized PAs (80-150 μm). Each group was comprised of four rats, and 10 measures were made per rat by an investigator blinded to the treatment groups.
CH induces remodeling of the intrapulmonary artery (IPA) in the rat model of CH-PAH. To examine the changes in the IPA wall upon CH exposure, the following method was performed. Isometric contractions were measured in rings from IPAs that were mounted in vertical 5-ml organ baths of a computerized isolated organ bath system (IOX, EMKA Technologies, Paris), as described in Bonnet, S., et al. (2001, Am. J. Physiol. 281, L183-L192, which is incorporated by reference herein in its entirety). Baths were filled with Krebs-Henseleit solution (composition in mM: 118.4 NaCl/4.7 KCl/2.5 CaCl2/1.2 MgSO4/1.2 KH2PO4/25 NaHCO3/11.1 D-glucose, pH 7.4). The baths were maintained at 37° C. and bubbled with a 95% O2/5% CO2 gas mixture. The tissues were set at optimal length by equilibration against a passive load of 10 mN for rings obtained from normoxic rats and 20 mN for rings obtained from hypoxic rats (Jones, J. E., et al. (2002) Am. J. Physiol. 283, H364-H371, which is incorporated by reference herein in its entirety). A cumulative concentration-response curve was then constructed. A concentration increment was made once the maximal contractile effect of the preceding concentration had been recorded.

The test system of a further assay is PASMCs. The assay is described as follows: Resting [Ca2+]i of PASMCs from orally DHEA-treated CH rats (indo-1). The settings on record: for effect on [Ca2+]i of PASMCs: CH rats. As for the experimental part: The heart and lungs were removed and intrapulmonary arteries (IPAs) (150-300 μm of internal diameter) were then dissected. The adventitial and intimal layers were removed. For contraction experiments, rings (3 mm in length) were prepared.
As mentioned earlier, Ca^2+ is thought to play an important role in the response to chronic hypoxia. To measure the effects of DHEA on [Ca^2+]i of individual PASMCs, a [Ca^2+]i-sensitive fluorophore, indo-1 (Calbiochem, San Diego, Calif.), was employed. PASMCs were loaded with indo-1 by incubation in physiological salt solution (139.6 mM NaCl/6.2 mM KCl/1 mM MgCl2/12.1 mM glucose/10 mM Hepes) containing 1 μM indo-1 penta-acetoxymethyl ester (Indo-1 a.m.) for 25 minutes at room temperature. The recording system included a Nikon Diaphot inverted microscope fitted with epifluorescence. The studied cell was illuminated at 360 nm and counted simultaneously at 405 nm and 480 nm by two photomultipliers (P100, Nikon). […] [Ca^2+]i was estimated from the 405:480 ratio (Bonnet, S., et al. (2001) Am. J. Physiol. 281, L193-L201).

The test system of a further assay is acute hypoxic challenge. The assay is described as follows: Pressure response of the PA to acute hypoxic challenge. The settings on record: 3 weeks of hypoxia under DHEA treatment; response disappeared without DHEA.

Entries after “also recorded” stand apart in the source; their conditions may differ.

Method for acute hypoxic challenge: To determine the effect of the chronic hypoxia treatment-induced CH-PAH and to determine the effect of DHEA administration on PAP, the following PAP measurement method was used. Rats were anaesthetized with ketamine 50 mg/kg and xylazine 10 mg/kg by i.p. injection. […] The effect of DHEA on the systemic blood pressure was controlled by another catheter placed into the left carotid artery. Throughout all the experiments, heart rate and oxygen saturation were monitored. Acute hypoxic stress with fraction of inspired O2 of 10% were applied by administration of an air plus nitrogen gas mixture. The fraction of inspired O2 was monitored with an oxygen analyzer (Servomex, Crowborough, Great Britain), and the effects on the PAP were measured over a 10-15 minute period.

Consider `C[C@]12CC[C@H](O)CC1=CC[C@@H]1[C@@H]2CC[C@]2(C)C(=O)CC[C@@H]12` [DHEA, dehydroepiandrosterone], for which the “effect on CH-induced decrease of BKCa protein” value in the assay with BKCa was “This decrease was prevented; also recorded: up-regulation”. In addition, the “immunoreactive signal of BKCa-subunit, CH-DHEA higher than CH” value in the assay with BKCa (three separate comparisons) is 48.6±5.6%. Besides, the RV wall thickness in assay [1] (CH-DHEA rats, oral DHEA during 3 wk hypoxia, untreated CH 2.74±0.5) was 1.6±0.03 mm; in assay [1] (rats 3 weeks in CH, oral DHEA during the last week, no DHEA 2.97±0.4), 1.91±0.2 mm. The “RV wall thickness, CH-DHEA vs control rats” value in assay [1] (after 1 or 2 wk of hypoxia exposure with oral DHEA) was “no difference”. In addition, the “effect on RV wall thickness / right ventricle hypertrophy (prevention)” value in assay [1] (oral DHEA for 3 weeks during chronic hypoxia) is on record as “significant preventive effect; also recorded: decreased; also recorded: almost entirely prevent”. For the same molecule, in assay [1] (oral DHEA, normoxic rats), the “effect on RV wall thickness” value is “no effect”. For the same molecule, in the assay on IPA wall (CH-DHEA rats, 3 weeks, CH untreated 33%), the “increase in media layer thickness compared with control rats” value is 11%. Further, the “effect on PA wall remodeling (prevention)” value in the assay with IPA wall (oral DHEA 3 weeks during CH) is listed as “significant protective effect; also recorded: almost entirely prevent; also recorded: prevented the PA wall remodeling”. The “effect on PA wall remodeling (reversal)” value in the assay on IPA wall (oral DHEA during last week of 3 weeks CH) is recorded as “partially but significantly reversed; also recorded: decreased the PA remodeling”. In addition, the “resting [Ca2+]i value of PASMCs” value is 90.1 ± 3.2 nM with PASMCs (CH-DHEA rats (3 wk oral DHEA), CH 143±7, control 69.2±2.2) and 105 ± 3 nM in the assay with PASMCs (DHEA from day 15 to day 21 of chronic hypoxia, untreated 143±7). Also, the “effect on [Ca2+]i of PASMCs” value with PASMCs (oral DHEA for 1 week) and in the assay on PASMCs (oral DHEA for 3 weeks) was “significant decrease; also recorded: decrease in [Ca^2+]i” in each case. In addition, the “pressure response to an acute hypoxic challenge” value with acute hypoxic challenge is “restored”.
